Assay results from patent publication US5491072A, “N-alkylacridan carboxyl derivatives useful for chemiluminescent detection” (Lumigen, Inc., priority 1993, dated 1996).

Assays:
[1] = molecular target: T1, horseradish peroxidase (Armoracia rusticana, UniProt P00433); test: Comparison of compounds 1a-e at pH 8.9, time course and total intensity of chemiluminescence; type: biochemical; conditions: 0.01 mM acridan, 0.1M phosphate pH 8.9, 6.2 mM H2O2, 2.25 mM p-iodophenol, 1×10^-13 mol HRP
T1 sequence (P00433 31-338 limits assumed): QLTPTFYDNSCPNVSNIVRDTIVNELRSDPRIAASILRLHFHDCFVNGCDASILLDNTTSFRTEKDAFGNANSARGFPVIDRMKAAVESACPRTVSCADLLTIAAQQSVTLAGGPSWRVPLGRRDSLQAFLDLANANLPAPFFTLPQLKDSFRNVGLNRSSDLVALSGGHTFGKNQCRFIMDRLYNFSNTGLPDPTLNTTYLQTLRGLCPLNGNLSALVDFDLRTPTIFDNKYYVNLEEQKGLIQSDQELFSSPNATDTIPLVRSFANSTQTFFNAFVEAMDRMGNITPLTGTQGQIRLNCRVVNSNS
Method: (§1) The experiments in the following examples were performed using a Turner Designs TD-20e luminometer fitted with neutral density filter for light attenuation. Data collection, analysis and display were software controlled. Constant temperature was maintained by means of an external circulating water bath connected to the luminometer.
A 200 μL volume of a formulation containing 0.01 mM acridan compound 1a-e in 0.1M phosphate buffer, pH 8.9, […] (6.2 mM) H2 O2, 2.25 mM p-iodophenol, 0.5% (w/w) Tween 20 and 1 mM EDTA was reacted with 1×10^-13 mol of horseradish peroxidase. […] Compared below are the peak light intensity (Imax) in relative light units (RLU), the time to maximum light intensity (tmax) and total light output.

[2] = test system: human transferrin; test: Chemiluminescent detection of proteins by Western blot
Description: To determine the sensitivity of reagents of the present invention for detection of proteins by Western blotting, a model system of transferrin was used to provide polypeptide bands in known quantities.
Rabbit anti-goat IgG-peroxidase conjugate and rabbit anti-goat IgG-peroxidase were obtained from Cappel Products (Durham, N.C.). Human transferrin and fractionated goat anti-human transferrin serum were purchased from Sigma Chemical Co. (St. Louis, Mo.)). The IgG sample was centrifuged at 10,000 g for two minutes and the supernatant was used in the immunological reaction. Immobilon™-P transfer membrane was obtained from Millipore Corp. (Bedford, Mass.). Kodak (Rochester, N.Y.) X-OMAT AR and OMC films were used in the assay procedure.
SDS-PAGE was performed utilizing the buffer system described by Laemmli (U. K. Laemmli, Nature (London), 227, 680 (1970)). The stacking gel was 4.38% acrylamide: 0.12% bisacrylamide. The separating gel was 6.81% acrylamide: 0.19% bisacrylamide. Following electrophoresis the gel was equilibrated for 7-8 minutes with the transfer buffer which contained 20 mM Tris, 153 mMglycine and 20% (v/v) methanol. The gel, sandwiched between a sheet of transfer membrane and a sheet of chromatography paper 3MM (Whatman), was placed in the transfer unit (Bio-Rad Laboratories, Richmond, Calif.). […]

[3] = molecular target: T1, horseradish peroxidase; test: Sensitivity of detection of horseradish peroxidase using 1b and hydrogen peroxide; type: biochemical; conditions: 1b 46 μmol/L, 0.2 mmol/L hydrogen peroxide, 37° C.; for linear assay range for HRP: pH 8.0 tris
Method: as §1
A matrix optimization experiment was done using 1b (0.1 mM-0.05 mM), hydrogen peroxide (4.4 mM-44 μM), HRP (9×10^-19 mol-1.4×10^-12 mol) at 37° C. The final assay reagent consists of 2.25×10^-3 M p-iodophenol, 0.5% Tween 20 and 1×10^-3 M EDTA in pH 8.0, 0.1M tris buffer. The best compromise between sensitivity and dynamic range was obtained using 1b (46 μmol/L) and 0.2 mmol/L hydrogen peroxide. These conditions gave a linear assay for HRP in the range of 9×10^-19 to 1.4×10^-14 mol (detection limit S/B=1.4 after 5 min with 9×10^-19 mol) or in the range of 9×10^-19 to 1.4×10^-15 mol (detection limit S/B=2 after 15 min with 9×10^-19 mol).
FIGS. 2A to 2C show the correlation of corrected signal to background vs. amount of HRP using solutions containing 0.05 mM 1b, 0.5% Tween 20, 1×10^-3 M EDTA in pH 8.0, 0.1M tris buffer.

[4] = molecular target: T2, HRP (Armoracia rusticana, UniProt P00433); test: Comparison of detection of HRP with luminol reagent and 1b reagent; type: biochemical, horseradish; conditions: corrected signal-to-background at 5 min, 37° C., comparing log (S-B)/B=0
T2 sequence (P00433 31-338 limits assumed): T1 sequence (P00433 31-338 limits assumed)
Method: as §1
Forty μL of a solution containing 1b (0.05 mM), p-iodophenol (2.25 mM), H2 O2 (0.2 mM), Tween 20 (0.5%), EDTA (1 mM) in 0.1M tris, pH 8.0 and forty μL of the commercial reagent (Amersham, Arlington Heights, Ill.) were incubated at 37° C. and reacted with varying amounts of HRP. FIG. 6 compares the corrected signal-to-background ratios at 5 min. […] Measuring light intensity at 15 min provides an additional reduction in detection limit with the reagent containing 1b, while the luminol reagent results are unchanged.

I max (RLU), peak light intensity ([1]; 0.5% Tween 20, 1 mM EDTA): 2047 RLU | I total (RLU), total light output [1]: 2 × 10^6 RLU | t max (min), time to maximum light intensity [1]: 4.2 min | linear assay range for HRP ([3]; after 5 min): 9e-19 to 1.4e-14 mol | linear assay range for HRP ([3]; after 15 min): 9e-19 to 1.4e-15 mol | detection limit S/B ([3]; after 5 min with 9×10^-19 mol HRP): 1.4 | detection limit S/B ([3]; after 15 min with 9×10^-19 mol HRP): 2 | sensitivity of detection of HRP compared to the luminol reagent [4]: greater sensitivity of detection
SMILES: CN1c2ccccc2C(C(=O)Oc2ccc(O)cc2)c2ccccc21 [Compound 1b, 4'-Hydroxyphenyl 10-methylacridan-9-carboxylate]
duration of detectable chemiluminescence on membrane (X-ray film) ([2]; HRP-conjugate on membrane, Western blot): at least three hours | transferrin standards clearly visible down to ([2]; detection reagent with 5 × 10^-5 M 1b and NaBO3, 7 sec exposure X-OMAT AR film or 30 second exposure OMC film): 20 pg/slot
